Values quoted from earlier work in US20260137744A1, “MELATONIN-ENRICHED COMPOSITION OF PISTACIA VERA (PISTACHIO) AND A METHOD OF PREPARATION THEREOF” (Network Nutrition Pty Limited, priority 2024, published 2026).

**Q.** With COc1ccc2[nH]cc(CCNC(C)=O)c2c1 [melatonin] as the compound, how does the “peak concentration in the bloodstream, time after oral dosage” value (after oral dosage) read?
**A.** Its value is “approximately 50 minutes”.

**Q.** What about the bioavailability (oral melatonin, average, varies significantly among individuals) of the same compound?
**A.** The bioavailability was “around 15%”.
